This note sets out measurements from patent US8435752B2, “Gene polymorphisms predictive for dual TKI therapy” (University of Southern California, priority 2007, dated 2013).

The assay concerns advanced or metastatic gastric cancer patients. The conditions noted are these: for median OS: Experiment No. 1, p=0.07; for OS / response rates: Experiment No. 2; for OS: p=0.04; for response rates: p<0.01.

Like-named read-outs stand apart in the source and are kept apart here.

In the case of `CS(=O)(=O)CCNCc1ccc(-c2ccc3ncnc(Nc4ccc(OCc5cccc(F)c5)c(Cl)c4)c3c2)o1` [lapatinib, Lapatinib], the “median OS” value amounted to 10 months (A/A genotype of IL-8 T251A polymorphism, blood samples from 40 patients); 3 months (first listed of the other 2 genotypes of IL-8 T251A); 3 months (second listed of the other 2 genotypes of IL-8 T251A). Moreover, the OS is, setting by setting: (IL-8 T251A A/A, blood samples from 42 patients) 10 months; (IL-8 T251A T/A) 5 months; (IL-8 T251A T/T) 3 months. Besides, the response rates entry reads like this: (patients with A allele of IL-8 T251A) “better response rates”; (patients with T allele of VEGF C936T) “better response rates”. The “median overall survival (OS)” value was 3 months (comparison group to higher HER2 gene expression (lower HER2), p=0.005); 3 months (comparison group to lower IL-8 gene expression (higher IL-8), p=0.03); 6 months (patients with higher intratumoral HER2 gene expression, p=0.005 vs lower); 6 months (patients with lower intratumoral IL-8 gene expression, p=0.03 vs higher).
